Measured values taken from PubChem BioAssay AID2060494 (Molecular Pharmacology Branch, DTP, NCI, 2025).
pIC50: −log10 of the molar value. One block for each molecule: values may come before it.

System: 435261-313-R-J1-PDC complex spheroid viability
Assay: Anticancer human tumor 435261-313-R-J1-PDC patient-derived colon adenocarcinoma cell line growth inhibition [GQUAD]
Conditions: for pIC50: curve of first compound; for viability, T/C: stronger effect = lower value
Method in brief: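 Viability of tumor cells grown as complex spheroids with endothelial and stromal cells, exposed to drug combinations. Top concentration at or near clinical Cmax (else 10 microM), diluted in half-log increments.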

[1] = second compound 0.0316 µM, first compound 0.0316 µM
[2] = second compound 0.0316 µM, first compound 0.1 µM
[3] = second compound 0.0316 µM, first compound 0.316 µM
[4] = second compound 0.0316 µM, first compound 1 µM
[5] = second compound 0.0316 µM, first compound 3.16 µM
[6] = second compound 0.0316 µM, first compound 10 µM
[7] = second compound 0.1 µM, first compound 0.0316 µM
[8] = second compound 0.1 µM, first compound 0.1 µM
[9] = second compound 0.1 µM, first compound 0.316 µM
[10] = second compound 0.1 µM, first compound 1 µM
[11] = second compound 0.1 µM, first compound 3.16 µM
[12] = second compound 0.1 µM, first compound 10 µM
[13] = second compound 0.316 µM, first compound 0.0316 µM
[14] = second compound 0.316 µM, first compound 0.1 µM
[15] = second compound 0.316 µM, first compound 0.316 µM
[16] = second compound 0.316 µM, first compound 1 µM
[17] = second compound 0.316 µM, first compound 3.16 µM
[18] = second compound 0.316 µM, first compound 10 µM
[19] = second compound 1 µM, first compound 0.0316 µM
[20] = second compound 1 µM, first compound 0.1 µM
[21] = second compound 1 µM, first compound 0.316 µM
[22] = second compound 1 µM, first compound 1 µM
[23] = second compound 1 µM, first compound 3.16 µM
[24] = second compound 1 µM, first compound 10 µM
[25] = second compound 3.16 µM, first compound 0.0316 µM
[26] = second compound 3.16 µM, first compound 0.1 µM
[27] = second compound 3.16 µM, first compound 0.316 µM
[28] = second compound 3.16 µM, first compound 1 µM
[29] = second compound 3.16 µM, first compound 3.16 µM
[30] = second compound 3.16 µM, first compound 10 µM
[31] = second compound 10 µM, first compound 0.0316 µM
[32] = second compound 10 µM, first compound 0.1 µM
[33] = second compound 10 µM, first compound 0.316 µM
[34] = second compound 10 µM, first compound 1 µM
[35] = second compound 10 µM, first compound 3.16 µM
[36] = second compound 10 µM, first compound 10 µM
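Also: spheroids exposed to the agents for seven days before readout.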
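For viability, T/C in this document: percent of vehicle control viability with DMSO wells as 100%.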

Compound: Nc1ccn(C2OC(CO)C(O)C2(F)F)c(=O)n1 (stereo not drawn) + CN(C)c1ccc(Nc2c3ccc(NC(=O)CCN4CCCC4)cc3nc3cc(NC(=O)CCN4CCCC4)ccc23)cc1
pIC50 (second compound 0.0316 µM): < 5.00
pIC50 (second compound 0.1 µM): < 5.00
pIC50 (second compound 0.316 µM): < 5.00
pIC50 (second compound 1 µM): < 5.00
pIC50 (second compound 3.16 µM): 5.55
pIC50 (second compound 10 µM): > 7.50
viability, T/C [1]: 90.2%
viability, T/C [2]: 78.8%
viability, T/C [3]: 90%
viability, T/C [4]: 83%
viability, T/C [5]: 77.2%
viability, T/C [6]: 60.9%
viability, T/C [7]: 85.3%
viability, T/C [8]: 103%
viability, T/C [9]: 72.5%
viability, T/C [10]: 84.5%
viability, T/C [11]: 70.4%
viability, T/C [12]: 68.5%
viability, T/C [13]: 98.4%
viability, T/C [14]: 94.8%
viability, T/C [15]: 70.4%
viability, T/C [16]: 68.3%
viability, T/C [17]: 76.9%
viability, T/C [18]: 67.8%
viability, T/C [19]: 79.9%
viability, T/C [20]: 78.2%
viability, T/C [21]: 74.5%
viability, T/C [22]: 68.1%
viability, T/C [23]: 78.8%
viability, T/C [24]: 66.5%
viability, T/C [25]: 68.7%
viability, T/C [26]: 58%
viability, T/C [27]: 53.2%
viability, T/C [28]: 57.5%
viability, T/C [29]: 54%
viability, T/C [30]: 38.7%
viability, T/C [31]: 30.9%
viability, T/C [32]: 26.6%
viability, T/C [33]: 26.2%
viability, T/C [34]: 32.9%
viability, T/C [35]: 26.5%
viability, T/C [36]: 24.9%

Compound: C=CC(=O)N1CCN(c2nc(=O)n(-c3c(C)ccnc3C(C)C)c3nc(-c4c(O)cccc4F)c(F)cc23)C(C)C1 (stereo not drawn) + Cc1[nH]c2ccc(F)cc2c1-c1nc2c3cccnc3c3ncccc3c2[nH]1
pIC50 (second compound 0.0316 µM): < 5.00
pIC50 (second compound 0.1 µM): < 5.00
pIC50 (second compound 0.316 µM): < 5.00
pIC50 (second compound 1 µM): < 5.00
pIC50 (second compound 3.16 µM): > 7.50
pIC50 (second compound 10 µM): > 7.50
viability, T/C [1]: 98.7%
viability, T/C [2]: 69.3%
viability, T/C [3]: 116%
viability, T/C [4]: 126%
viability, T/C [5]: 127%
viability, T/C [6]: 83.8%
viability, T/C [7]: 85%
viability, T/C [8]: 131%
viability, T/C [9]: 92.8%
viability, T/C [10]: 109%
viability, T/C [11]: 129%
viability, T/C [12]: 97.8%
viability, T/C [13]: 97.6%
viability, T/C [14]: 106%
viability, T/C [15]: 88.7%
viability, T/C [16]: 73.9%
viability, T/C [17]: 122%
viability, T/C [18]: 104%
viability, T/C [19]: 78.4%
viability, T/C [20]: 84%
viability, T/C [21]: 74.2%
viability, T/C [22]: 71.2%
viability, T/C [23]: 61%
viability, T/C [24]: 80.4%
viability, T/C [25]: 41.5%
viability, T/C [26]: 27.6%
viability, T/C [27]: 28.1%
viability, T/C [28]: 42.5%
viability, T/C [29]: 54.2%
viability, T/C [30]: 32%
viability, T/C [31]: 22.4%
viability, T/C [32]: 24.8%
viability, T/C [33]: 24.8%
viability, T/C [34]: 16.2%
viability, T/C [35]: 28.3%
viability, T/C [36]: 22.4%

pIC50 (second compound 0.0316 µM): < 6.50
pIC50 (second compound 0.1 µM): < 6.50
pIC50 (second compound 0.316 µM): < 6.50
pIC50 (second compound 1 µM): > 9.00
pIC50 (second compound 3.16 µM): > 9.00
pIC50 (second compound 10 µM): > 9.00
Compound: Cn1ncnc1[C@H]1c2n[nH]c(=O)c3cc(F)cc(c23)N[C@@H]1c1ccc(F)cc1 + Cc1cnc(CNC(=O)c2c(=O)c3ccc(N4CCCN(C)CC4)nc3n3c2sc2ccccc23)cn1
viability, T/C (second compound 0.0316 µM, first compound 0.000999 µM): 82.1%
viability, T/C (second compound 0.0316 µM, first compound 0.00316 µM): 60.3%
viability, T/C (second compound 0.0316 µM, first compound 0.00999 µM): 66.2%
viability, T/C [1]: 60.9%
viability, T/C (second compound 0.0316 µM, first compound 0.0999 µM): 72.1%
viability, T/C [3]: 62.9%
viability, T/C (second compound 0.1 µM, first compound 0.000999 µM): 59.5%
viability, T/C (second compound 0.1 µM, first compound 0.00316 µM): 60.5%
viability, T/C (second compound 0.1 µM, first compound 0.00999 µM): 47.1%
viability, T/C [7]: 57%
viability, T/C (second compound 0.1 µM, first compound 0.0999 µM): 59.4%
viability, T/C [9]: 62.4%
viability, T/C (second compound 0.316 µM, first compound 0.000999 µM): 58.9%
viability, T/C (second compound 0.316 µM, first compound 0.00316 µM): 57.8%
viability, T/C (second compound 0.316 µM, first compound 0.00999 µM): 55.4%
viability, T/C [13]: 53.1%
viability, T/C (second compound 0.316 µM, first compound 0.0999 µM): 49.6%
viability, T/C [15]: 53.4%
viability, T/C (second compound 1 µM, first compound 0.000999 µM): 42.4%
viability, T/C (second compound 1 µM, first compound 0.00316 µM): 46.8%
viability, T/C (second compound 1 µM, first compound 0.00999 µM): 59.2%
viability, T/C [19]: 49.8%
viability, T/C (second compound 1 µM, first compound 0.0999 µM): 47.1%
viability, T/C [21]: 46.9%
viability, T/C (second compound 3.16 µM, first compound 0.000999 µM): 17.9%
viability, T/C (second compound 3.16 µM, first compound 0.00316 µM): 18.4%
viability, T/C (second compound 3.16 µM, first compound 0.00999 µM): 12.7%
viability, T/C [25]: 23%
viability, T/C (second compound 3.16 µM, first compound 0.0999 µM): 20.4%
viability, T/C [27]: 11.9%
viability, T/C (second compound 10 µM, first compound 0.000999 µM): 0.24%
viability, T/C (second compound 10 µM, first compound 0.00316 µM): 11.3%
viability, T/C (second compound 10 µM, first compound 0.00999 µM): 0.24%
viability, T/C [31]: 0.21%
viability, T/C (second compound 10 µM, first compound 0.0999 µM): 0.18%
viability, T/C [33]: 9.04%

Compound: CC1COCCN1c1cc(-c2ccnn2C)c2ccnc(-c3ccn[nH]3)c2n1 (stereo not drawn) + CN(C)c1ccc(Nc2c3ccc(NC(=O)CCN4CCCC4)cc3nc3cc(NC(=O)CCN4CCCC4)ccc23)cc1
pIC50 (second compound 0.0316 µM): 6.09
pIC50 (second compound 0.1 µM): 6.30
pIC50 (second compound 0.316 µM): 6.14
pIC50 (second compound 1 µM): 5.99
pIC50 (second compound 3.16 µM): 6.84
pIC50 (second compound 10 µM): > 7.50
viability, T/C [1]: 87%
viability, T/C [2]: 76%
viability, T/C [3]: 76.2%
viability, T/C [4]: 43.6%
viability, T/C [5]: 28.8%
viability, T/C [6]: 25.2%
viability, T/C [7]: 88.4%
viability, T/C [8]: 85.9%
viability, T/C [9]: 55.9%
viability, T/C [10]: 38.5%
viability, T/C [11]: 38.8%
viability, T/C [12]: 23.1%
viability, T/C [13]: 71.8%
viability, T/C [14]: 80.7%
viability, T/C [15]: 60.4%
viability, T/C [16]: 44.5%
viability, T/C [17]: 32.8%
viability, T/C [18]: 22.9%
viability, T/C [19]: 64.6%
viability, T/C [20]: 69.5%
viability, T/C [21]: 61.8%
viability, T/C [22]: 48.2%
viability, T/C [23]: 35%
viability, T/C [24]: 17.2%
viability, T/C [25]: 89%
viability, T/C [26]: 48.3%
viability, T/C [27]: 41.5%
viability, T/C [28]: 24.5%
viability, T/C [29]: 16.4%
viability, T/C [30]: 4.38%
viability, T/C [31]: 27.1%
viability, T/C [32]: 22.1%
viability, T/C [33]: 21.6%
viability, T/C [34]: 14.1%
viability, T/C [35]: 6.17%
viability, T/C [36]: 1.51%
